Data as given in article PMC11309911 (British journal of pharmacology, 2024).

Target: Cav2.1 calcium channel α1 subunit (P/Q-type hCav2.1) (Homo sapiens, UniProt O00555)
Assay: whole-cell patch clamp of ICa in transfected HEK293-F cells
Type: cell-based

Cav2.1 calcium channel α1 subunit (P/Q-type hCav2.1), sequence (O00555 whole entry): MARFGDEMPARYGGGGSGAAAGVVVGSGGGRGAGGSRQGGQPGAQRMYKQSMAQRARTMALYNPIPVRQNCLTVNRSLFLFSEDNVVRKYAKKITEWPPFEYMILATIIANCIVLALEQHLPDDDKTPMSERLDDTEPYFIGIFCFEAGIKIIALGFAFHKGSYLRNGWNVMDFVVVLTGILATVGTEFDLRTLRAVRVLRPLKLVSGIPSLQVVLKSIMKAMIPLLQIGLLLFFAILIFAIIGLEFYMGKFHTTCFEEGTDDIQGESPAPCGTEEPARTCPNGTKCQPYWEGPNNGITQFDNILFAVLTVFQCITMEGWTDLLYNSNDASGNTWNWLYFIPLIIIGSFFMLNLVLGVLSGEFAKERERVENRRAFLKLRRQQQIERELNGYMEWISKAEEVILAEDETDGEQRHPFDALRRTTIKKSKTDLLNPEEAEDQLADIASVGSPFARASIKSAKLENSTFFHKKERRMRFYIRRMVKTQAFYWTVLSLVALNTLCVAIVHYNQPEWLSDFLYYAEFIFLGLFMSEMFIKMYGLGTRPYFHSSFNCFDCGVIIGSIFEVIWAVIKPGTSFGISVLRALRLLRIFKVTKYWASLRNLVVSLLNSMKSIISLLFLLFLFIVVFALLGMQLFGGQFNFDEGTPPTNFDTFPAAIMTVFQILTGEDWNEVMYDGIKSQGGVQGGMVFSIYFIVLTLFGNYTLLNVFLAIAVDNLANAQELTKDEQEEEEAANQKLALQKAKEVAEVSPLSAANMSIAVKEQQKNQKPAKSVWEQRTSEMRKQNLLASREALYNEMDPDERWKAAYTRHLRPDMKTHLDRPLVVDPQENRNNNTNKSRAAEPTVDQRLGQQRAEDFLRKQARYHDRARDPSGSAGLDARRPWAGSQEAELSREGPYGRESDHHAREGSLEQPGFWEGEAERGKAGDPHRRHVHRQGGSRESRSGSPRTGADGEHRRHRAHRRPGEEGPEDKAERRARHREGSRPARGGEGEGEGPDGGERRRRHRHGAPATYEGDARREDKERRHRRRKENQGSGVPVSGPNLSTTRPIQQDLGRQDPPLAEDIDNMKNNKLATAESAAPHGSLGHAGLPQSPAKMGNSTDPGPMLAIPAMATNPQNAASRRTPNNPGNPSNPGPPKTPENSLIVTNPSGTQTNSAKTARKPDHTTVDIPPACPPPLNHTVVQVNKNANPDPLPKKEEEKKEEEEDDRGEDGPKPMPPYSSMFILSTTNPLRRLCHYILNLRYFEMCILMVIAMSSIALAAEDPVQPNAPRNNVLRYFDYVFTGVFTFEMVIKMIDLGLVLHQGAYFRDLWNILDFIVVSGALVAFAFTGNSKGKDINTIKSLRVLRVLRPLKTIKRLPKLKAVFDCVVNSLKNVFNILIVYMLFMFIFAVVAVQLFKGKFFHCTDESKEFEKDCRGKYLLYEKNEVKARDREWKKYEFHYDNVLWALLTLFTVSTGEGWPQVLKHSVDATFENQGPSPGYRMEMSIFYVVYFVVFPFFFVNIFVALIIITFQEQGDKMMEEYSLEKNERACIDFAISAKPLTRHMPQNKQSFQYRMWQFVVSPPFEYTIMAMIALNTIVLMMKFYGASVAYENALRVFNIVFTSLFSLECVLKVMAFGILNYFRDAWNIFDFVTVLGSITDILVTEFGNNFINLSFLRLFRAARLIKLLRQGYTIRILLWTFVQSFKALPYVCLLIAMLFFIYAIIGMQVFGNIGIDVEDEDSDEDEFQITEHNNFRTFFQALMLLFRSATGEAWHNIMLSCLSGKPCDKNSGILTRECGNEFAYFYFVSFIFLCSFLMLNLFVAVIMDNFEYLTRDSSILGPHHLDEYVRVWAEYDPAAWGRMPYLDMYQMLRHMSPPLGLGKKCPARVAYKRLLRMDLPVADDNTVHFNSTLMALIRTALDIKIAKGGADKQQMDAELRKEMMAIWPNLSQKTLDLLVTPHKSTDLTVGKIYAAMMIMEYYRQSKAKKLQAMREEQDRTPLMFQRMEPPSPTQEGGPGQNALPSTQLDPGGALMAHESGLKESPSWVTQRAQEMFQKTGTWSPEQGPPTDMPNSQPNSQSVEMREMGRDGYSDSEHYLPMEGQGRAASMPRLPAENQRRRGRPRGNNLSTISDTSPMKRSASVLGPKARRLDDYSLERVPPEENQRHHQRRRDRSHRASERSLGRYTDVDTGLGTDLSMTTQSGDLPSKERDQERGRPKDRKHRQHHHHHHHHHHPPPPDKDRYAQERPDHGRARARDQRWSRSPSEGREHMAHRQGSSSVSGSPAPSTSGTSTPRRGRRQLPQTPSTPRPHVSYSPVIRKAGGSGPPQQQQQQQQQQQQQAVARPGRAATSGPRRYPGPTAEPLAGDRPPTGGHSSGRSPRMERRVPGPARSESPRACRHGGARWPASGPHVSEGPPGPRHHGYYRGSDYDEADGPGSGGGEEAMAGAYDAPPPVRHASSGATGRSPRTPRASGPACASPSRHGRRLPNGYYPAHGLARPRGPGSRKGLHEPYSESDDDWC

IC50: ~2500 nM
Compound: N.N.N.N.N.N.N.N.[Cl][Ru+3].[NH]=[Ru][Cl] [Ru265]
